This experiment addresses PD-1/PD-L1 (Homo sapiens (Human), UniProt Q9NZQ7). In words: PD-1/PD-L1 Homogenous Time-Resolved Fluorescence (HTRF) binding assay. The conditions noted are these: PD-L1-His 10 nM, PD-1-Ig 20 nM. An excerpt: The ability of the compounds of formula (I) to bind to PD-L1 was investigated using a PD-1/PD-L1 Homogenous Time-Resolved Fluorescence (HTRF) binding assay.
Homogenous Time-Resolved Fluorescence (HTRF) binding assay.
The interaction of PD-1 and PD-L1 can be assessed using soluble, purified preparations of the extracellular domains of the two proteins. The PD-1 and PD-L1 protein extracellular domains were expressed as fusion proteins with detection tags, for PD-1, the tag was the Fc portion of Immunoglobulin (PD-1-Ig) and for PD-L1 it was the 6 histidine motif (PD-L1-His). All binding studies were performed in an HTRF assay buffer consisting of dPBS supplemented with 0.1% […] bovine serum albumin and 0.05% (v/v) Tween-20. For the h/PD-L1-His binding assay, inhibitors were pre-incubated with PD-L1-His (10 nM final) for 15m in 4 μl of assay buffer, followed by addition of PD-1-Ig (20 nM final) in 1 µl of assay buffer and further incubation for 15m. HTRF detection was achieved using europium crypate-labeled anti-Ig (1 nM final) and allophycocyanin (APC) labeled anti-His (20 nM final). Antibodies were diluted in HTRF detection buffer and 5 μl was dispensed on top of the binding reaction. The reaction mixture was allowed to equilibrate for 30 minutes and the resulting signal (665 nm/620 nm ratio) was obtained using an EnVision fluorometer. Additional binding assays were established between the human proteins PD-1-Ig/PD-L2-His (20 & 5 nM, respectively) and CD8O-His/PD-L1-Ig (100 & 10 nM, respectively).
Recombinant Proteins: Human PD-1 (25-167) with a C-terminal human Fc domain of immunoglobulin G (Ig) epitope tag [hPD-1 (25-167)-3S-IG] and human PD-L1 (18-239) with a C-terminal His epitope tag [hPD-L1(18-239)-TVMV-His] were expressed in HEK293T cells and purified sequentially by ProteinA affinity chromatography and size exclusion chromatography. Human PD-L2-His and CD8O-His was obtained through commercial sources.
The table below lists the IC50 values for representative examples of this disclosure measured in the PD-1/PD-L1 Homogenous Time-Resolved Fluorescence (HTRF) binding assay.
In general terms: TR-FRET usually uses a lanthanide donor and a delayed reading to cut background.

We go through nine compounds from patent US11578054B2, “Compounds useful as immunomodulators” (Bristol-Myers Squibb Company, priority 2018, dated 2023).

Chain of PD-1/PD-L1 (Q9NZQ7 other isoform, or with tags, fused parts or gaps): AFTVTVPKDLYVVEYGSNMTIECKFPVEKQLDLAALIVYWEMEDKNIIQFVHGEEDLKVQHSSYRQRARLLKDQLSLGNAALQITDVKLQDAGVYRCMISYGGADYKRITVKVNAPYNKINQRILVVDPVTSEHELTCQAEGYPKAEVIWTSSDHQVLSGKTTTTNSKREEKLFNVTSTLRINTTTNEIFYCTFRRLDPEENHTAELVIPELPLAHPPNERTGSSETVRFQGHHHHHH

On to `Cc1c(OCCCN2CC[C@@H](O)C2)cccc1-c1cccc2c1CCC2Oc1cc(OCc2cncc(C#N)c2)c(CN[C@](C)(CO)C(=O)O)cc1Cl` (stereo partly drawn) [Example 1012, (2R)-2-((5-Chloro-2-((5-cyanopyridin-3-yl)methoxy)-4-((4-(3-(3-((R)-3-hydroxypyrrolidin-1-yl)propoxy)-2-methylphenyl)-2,3-dihydro-1H-inden-1-yl)oxy)benzyl)-amino)-3-hydroxy-2-methylpropanoic acid], for which the IC50 (as a rule, the concentration that inhibits the measured activity by half) is 1.8 nM.

In the case of `N#Cc1cncc(COc2cc(OC3CCc4c(-c5cccc(OCCCNC[C@H](O)CO)c5Cl)cccc43)c(Cl)cc2CN[C@@H](CCO)C(=O)O)c1` (stereo partly drawn) [Example 1021, (5-Chloro-4-((4-(2-chloro-3-(3-(((S)-2,3-dihydroxypropyl)amino)propoxy)phenyl)-2,3-dihydro-1H-inden-1-yl)oxy)-2-((5-cyanopyridin-3-yl)methoxy)benzyl)-L-homoserine], the IC50 was 1 nM.

For the compound `CN1CCCC(COc2cccc(-c3cccc4c3CCC4Oc3cc(OCc4cncc(C#N)c4)c(CN4CCCC[C@H]4C(=O)O)cc3Cl)c2Cl)C1` (stereo partly drawn) [Example 1001, (2S)-1-(5-Chloro-4-((4-(2-chloro-3-((1-methylpiperidin-3-yl)methoxy)phenyl)-2,3-dihydro-1H-inden-1-yl)oxy)-2-((5-cyanopyridin-3-yl)methoxy)benzyl)piperidine-2-carboxylic acid], the IC50 stood at 1.4 nM.

Compound `CN1CCC[C@@H](COc2cccc(-c3cccc4c3CC[C@H]4Oc3cc(OCc4cncc(C#N)c4)c(CO)cc3Cl)c2Cl)C1` [Example 1007, 5-((4-chloro-5-(((R)-4-(2-chloro-3-(((R)-1-methylpiperidin-3-yl)methoxy)phenyl)-2,3-dihydro-1H-inden-1-yl)oxy)-2-(hydroxymethyl)phenoxy)methyl)nicotinonitrile] yielded an IC50 of 4.3 nM.

The compound `CN1CCC[C@H](COc2cccc(-c3cccc4c3CC[C@@H]4Oc3cc(OCc4cncc(C#N)c4)c(CO)cc3Cl)c2Cl)C1` [Example 1009, 5-((4-chloro-5-(((S)-4-(2-chloro-3-(((S)-1-methylpiperidin-3-yl)methoxy)phenyl)-2,3-dihydro-1H-inden-1-yl)oxy)-2-(hydroxymethyl)phenoxy)methyl)nicotinonitrile] registered an IC50 of 24.1 nM.

In the case of `N#Cc1cncc(COc2cc(OC3CCc4c(-c5cccc(OCCCNC[C@H](O)CO)c5Cl)cccc43)c(Cl)cc2CO)c1` (stereo partly drawn) [Example 1020, 5-((4-Chloro-5-((4-(2-chloro-3-(3-(((S)-2,3-dihydroxypropyl)amino)propoxy)phenyl)-2,3-dihydro-1H-inden-1-yl)oxy)-2-(hydroxymethyl)phenoxy)methyl)nicotinonitrile], the IC50 came to 10.9 nM.

Compound `CN1CCC[C@@H](COc2cccc(-c3cccc4c3CC[C@@H]4Oc3cc(OCc4cncc(C#N)c4)c(CO)cc3Cl)c2Cl)C1` [Example 1005, 5-((4-chloro-5-(((S)-4-(2-chloro-3-(((R)-1-methylpiperidin-3-yl)methoxy)phenyl)-2,3-dihydro-1H-inden-1-yl)oxy)-2-(hydroxymethyl)phenoxy)methyl)nicotinonitrile] gave an IC50 of 10.6 nM.

Turning to `Cc1c(OCCCN2CC[C@@H](O)C2)cccc1-c1cccc2c1CCC2Oc1cc(OCc2cncc(C#N)c2)c(CN2CCCC[C@H]2C(=O)O)cc1Cl` (stereo partly drawn) [Example 1014, (2S)-1-(5-Chloro-2-((5-cyanopyridin-3-yl)methoxy)-4-((4-(3-(3-((R)-3-hydroxypyrrolidin-1-yl)propoxy)-2-methylphenyl)-2,3-dihydro-1H-inden-1-yl)oxy)benzyl)-piperidine-2-carboxylic acid], the IC50 turned out to be 5.8 nM.

In the case of `CN1CCC[C@@H](COc2cccc(-c3cccc4c3CC[C@@H]4Oc3cc(OCc4cncc(C#N)c4)c(CN[C@](C)(CO)C(=O)O)cc3Cl)c2Cl)C1` [Example 1004], the concentration for half-maximal inhibition (IC50) was determined as 3.9 nM.
